Assay results from the supplement of paper PMC13380429.

Tests used:
Details in all cases: 72 h
[1] = tested on: Caco-2; test: cell viability relative to DMSO; higher = less toxic
[2] = tested on: Calu-3; test: as above
[3] = tested on: HepG2; test: as above
[4] = tested on: Caco-2; test: relative viability EC50 (midpoint between 100% and the lowest measured viability); higher = less toxic
[5] = tested on: HepG2; test: as above
[6] = tested on: Caco-2; test: drug sensitivity score (DSS) for viability; higher = more toxic; extreme values may be limits of the assay
[7] = tested on: Calu-3; test: as above
[8] = tested on: HepG2; test: as above
[9] = tested on: U2OS; test: cell viability relative to DMSO; higher = less toxic
[10] = tested on: Calu-3; test: relative viability EC50 (midpoint between 100% and the lowest measured viability); higher = less toxic
[11] = tested on: U2OS; test: as above
[12] = tested on: U2OS; test: drug sensitivity score (DSS) for viability; higher = more toxic; extreme values may be limits of the assay
[13] = tested on: Vero E6; test: cell viability relative to DMSO; higher = less toxic
[14] = tested on: Vero E6; test: relative viability EC50 (midpoint between 100% and the lowest measured viability); higher = less toxic
[15] = tested on: Vero E6; test: drug sensitivity score (DSS) for viability; higher = more toxic; extreme values may be limits of the assay

**Q.** `CCOC(=O)c1ncc2[nH]c3cccc(OC(C)C)c3c2c1C` was tested. Which cell viability ([1]; 1 nM) did it give?
**A.** 101%

**Q.** What about the cell viability ([1]; 10 nM) of the same molecule?
**A.** 113%

**Q.** And the cell viability ([1]; 100 nM)?
**A.** 109%

**Q.** And the cell viability ([1]; 1000 nM)?
**A.** 103%

**Q.** And the cell viability ([1]; 10000 nM)?
**A.** 75%

**Q.** And the cell viability ([2]; 1 nM)?
**A.** 88.7%

**Q.** And the cell viability ([2]; 10 nM)?
**A.** 112%

**Q.** What about the cell viability ([2]; 100 nM) of the same molecule?
**A.** 99.1%

**Q.** And the cell viability ([2]; 1000 nM)?
**A.** 104%

**Q.** And the cell viability ([2]; 10000 nM)?
**A.** 74.9%

**Q.** And the cell viability ([3]; 1 nM)?
**A.** 114%

**Q.** And the cell viability ([3]; 10 nM)?
**A.** 102%

**Q.** And the cell viability ([3]; 100 nM)?
**A.** 137%

**Q.** And the cell viability ([3]; 1000 nM)?
**A.** 98.8%

**Q.** And the cell viability ([3]; 10000 nM)?
**A.** 109%

**Q.** What about the “relative viability EC50” value [4] of the same molecule?
**A.** > 10 µM

**Q.** And the “relative viability EC50” value [5]?
**A.** > 10 µM

**Q.** What about the drug sensitivity score [6] of the same molecule?
**A.** 0.8

**Q.** And the drug sensitivity score [7]?
**A.** 0.8

**Q.** What about the drug sensitivity score [8] of the same molecule?
**A.** 0

**Q.** With `COc1cnc(NS(=O)(=O)c2ccc(N)cc2)nc1` [sulfameter] as the molecule, how does the cell viability ([1]; 1 nM) read?
**A.** 106%

**Q.** And the cell viability ([1]; 10 nM)?
**A.** 103%

**Q.** What about the cell viability ([1]; 100 nM) of the same molecule?
**A.** 92.7%

**Q.** And the cell viability ([1]; 1000 nM)?
**A.** 103%

**Q.** What about the cell viability ([1]; 10000 nM) of the same molecule?
**A.** 98.8%

**Q.** What about the cell viability ([2]; 1 nM) of the same molecule?
**A.** 97.2%

**Q.** What about the cell viability ([2]; 10 nM) of the same molecule?
**A.** 96.4%

**Q.** What about the cell viability ([2]; 100 nM) of the same molecule?
**A.** 99.3%

**Q.** What about the cell viability ([2]; 1000 nM) of the same molecule?
**A.** 101%

**Q.** What about the cell viability ([2]; 10000 nM) of the same molecule?
**A.** 105%

**Q.** And the cell viability ([3]; 1 nM)?
**A.** 102%

**Q.** And the cell viability ([3]; 10 nM)?
**A.** 110%

**Q.** And the cell viability ([3]; 100 nM)?
**A.** 97%

**Q.** And the cell viability ([3]; 1000 nM)?
**A.** 99.6%

**Q.** What about the cell viability ([3]; 10000 nM) of the same molecule?
**A.** 106%

**Q.** And the cell viability ([9]; 1 nM)?
**A.** 96.2%

**Q.** What about the cell viability ([9]; 10 nM) of the same molecule?
**A.** 101%

**Q.** And the cell viability ([9]; 100 nM)?
**A.** 94.3%

**Q.** And the cell viability ([9]; 1000 nM)?
**A.** 101%

**Q.** And the cell viability ([9]; 10000 nM)?
**A.** 97.2%

**Q.** What about the “relative viability EC50” value [4] of the same molecule?
**A.** > 10 µM

**Q.** What about the “relative viability EC50” value [10] of the same molecule?
**A.** > 10 µM

**Q.** And the “relative viability EC50” value [5]?
**A.** > 10 µM

**Q.** What about the “relative viability EC50” value [11] of the same molecule?
**A.** > 10 µM

**Q.** What about the drug sensitivity score [6] of the same molecule?
**A.** 0

**Q.** And the drug sensitivity score [7]?
**A.** 0

**Q.** What about the drug sensitivity score [8] of the same molecule?
**A.** 0

**Q.** What about the drug sensitivity score [12] of the same molecule?
**A.** 0

**Q.** Which cell viability ([1]; 1 nM) does the source give for `O=C(O)C[CH2][Ge](=[O])[O][Ge](=[O])[CH2]CC(=O)O` [propagermanium] here?
**A.** 108%

**Q.** What about the cell viability ([1]; 10 nM) of the same molecule?
**A.** 91.4%

**Q.** What about the cell viability ([1]; 100 nM) of the same molecule?
**A.** 106%

**Q.** What about the cell viability ([1]; 1000 nM) of the same molecule?
**A.** 93.4%

**Q.** And the cell viability ([1]; 10000 nM)?
**A.** 100%

**Q.** And the cell viability ([2]; 1 nM)?
**A.** 102%

**Q.** What about the cell viability ([2]; 10 nM) of the same molecule?
**A.** 105%

**Q.** And the cell viability ([2]; 100 nM)?
**A.** 95.6%

**Q.** And the cell viability ([2]; 1000 nM)?
**A.** 99.2%

**Q.** And the cell viability ([2]; 10000 nM)?
**A.** 105%

**Q.** And the cell viability ([3]; 1 nM)?
**A.** 104%

**Q.** And the cell viability ([3]; 10 nM)?
**A.** 106%

**Q.** What about the cell viability ([3]; 100 nM) of the same molecule?
**A.** 95.3%

**Q.** What about the cell viability ([3]; 1000 nM) of the same molecule?
**A.** 96.8%

**Q.** What about the cell viability ([3]; 10000 nM) of the same molecule?
**A.** 88%

**Q.** And the cell viability ([9]; 1 nM)?
**A.** 101%

**Q.** And the cell viability ([9]; 10 nM)?
**A.** 101%

**Q.** And the cell viability ([9]; 100 nM)?
**A.** 99.1%

**Q.** What about the cell viability ([9]; 1000 nM) of the same molecule?
**A.** 97.1%

**Q.** And the cell viability ([9]; 10000 nM)?
**A.** 97.5%

**Q.** And the “relative viability EC50” value [4]?
**A.** > 10 µM

**Q.** And the “relative viability EC50” value [10]?
**A.** > 10 µM

**Q.** What about the “relative viability EC50” value [5] of the same molecule?
**A.** > 10 µM

**Q.** And the “relative viability EC50” value [11]?
**A.** > 10 µM

**Q.** What about the drug sensitivity score [6] of the same molecule?
**A.** 0

**Q.** What about the drug sensitivity score [7] of the same molecule?
**A.** 0

**Q.** What about the drug sensitivity score [8] of the same molecule?
**A.** 0

**Q.** What about the drug sensitivity score [12] of the same molecule?
**A.** 0

**Q.** Which cell viability ([1]; 1 nM) does the source give for `O=C(CC(c1ccccc1)c1ccccc1)N1CCN(C(c2ccccc2)c2ccccc2)CC1` [Z160] here?
**A.** 99.9%

**Q.** And the cell viability ([1]; 10 nM)?
**A.** 103%

**Q.** And the cell viability ([1]; 100 nM)?
**A.** 97.1%

**Q.** What about the cell viability ([1]; 1000 nM) of the same molecule?
**A.** 92.9%

**Q.** And the cell viability ([1]; 10000 nM)?
**A.** 67.8%

**Q.** And the cell viability ([2]; 1 nM)?
**A.** 104%

**Q.** And the cell viability ([2]; 10 nM)?
**A.** 92.8%

**Q.** And the cell viability ([2]; 100 nM)?
**A.** 104%

**Q.** And the cell viability ([2]; 1000 nM)?
**A.** 93.9%

**Q.** What about the cell viability ([2]; 10000 nM) of the same molecule?
**A.** 114%

**Q.** And the cell viability ([3]; 1 nM)?
**A.** 88.7%

**Q.** And the cell viability ([3]; 10 nM)?
**A.** 104%

**Q.** What about the cell viability ([3]; 100 nM) of the same molecule?
**A.** 88.5%

**Q.** And the cell viability ([3]; 1000 nM)?
**A.** 95.6%

**Q.** What about the cell viability ([3]; 10000 nM) of the same molecule?
**A.** 57.7%

**Q.** And the cell viability ([9]; 1 nM)?
**A.** 101%

**Q.** What about the cell viability ([9]; 10 nM) of the same molecule?
**A.** 99%

**Q.** And the cell viability ([9]; 100 nM)?
**A.** 99.1%

**Q.** What about the cell viability ([9]; 1000 nM) of the same molecule?
**A.** 97.2%

**Q.** What about the cell viability ([9]; 10000 nM) of the same molecule?
**A.** 88.6%

**Q.** What about the cell viability ([13]; 1 nM) of the same molecule?
**A.** 93.7%

**Q.** And the cell viability ([13]; 10 nM)?
**A.** 99.1%

**Q.** What about the cell viability ([13]; 100 nM) of the same molecule?
**A.** 94.9%

**Q.** What about the cell viability ([13]; 1000 nM) of the same molecule?
**A.** 99.8%

**Q.** What about the cell viability ([13]; 10000 nM) of the same molecule?
**A.** 100%

**Q.** What about the “relative viability EC50” value [10] of the same molecule?
**A.** > 10 µM

**Q.** And the “relative viability EC50” value [11]?
**A.** > 10 µM

**Q.** What about the “relative viability EC50” value [14] of the same molecule?
**A.** > 10 µM

**Q.** And the drug sensitivity score [6]?
**A.** 2.6

**Q.** What about the drug sensitivity score [7] of the same molecule?
**A.** 0

**Q.** What about the drug sensitivity score [8] of the same molecule?
**A.** 2.9

**Q.** What about the drug sensitivity score [12] of the same molecule?
**A.** 0.1

**Q.** What about the drug sensitivity score [15] of the same molecule?
**A.** 0
